Legend:
HRVc25 replicon = experiment: HRVc25 HeLa replicon EC50; assay type: cell-based; details: Human rhinovirus sp., HRV25, H1-HeLa, 48 h, read-out: HRV25 Rep EC50
Protocol: First, HRV replicon RNA is prepared. 5 μg of DNA Template (HRVc15 or HRVc25) is linearized with 2 μL of MluI enzyme in NEB buffer-3 in a final volume of 25 μL for 3 hours at 37° C. Following incubation, linearized DNA is purified on a PCR purification column and the following in vitro transcription is performed using the following conditions: 10 μL of RiboMAX Express T7 2× buffer, 1-8 μL of linear DNA template (1 μg), 0-7 μL nuclease free water, 2 μL enzyme mix T7 express. The final volume of 20 μL is mixed and incubated at 37° C. for 30 min. Following incubation, 1 μL of RQ1 RNase free DNase is added and the mixture is incubated at 37° C. for 15 min. The resulting RNA is then purified with the MegaClear Kit (Gibco Life Technologies Cat #11835-030) and is eluted two times with 50 μL of elution buffer at 95° C. […] Replicon activity is then measured by a Renilla-Glo Luciferase Assay system. Prior to signal quantification, plates are removed from incubators and are allowed to equilibrate to 25° C. after 50 uL is removed from each well. […] Plates are then incubated for 20 min at 25° C. under gentle agitation and luciferase signal are determined with a 0.1 second detection setting using an EnVision luciferase quantification reader.

[1] = PBMC in-vitro intracellular triphosphate formation assay; assay type: in vitro ADME; details: 2 μM, 2 hours incubation, compared to compound 2 and/or 6 (FIG. 2)
Protocol: In-vitro intracellular triphosphate formation was measured for the compound of Formula I and compounds 2 and 6 using the following protocol. Freshly-isolated PBMC's were derived from a healthy donor and were suspended to a concentration of 5 million cells/mL in culture medium ([…] containing L-glutamine) prior to the start of the experiment. 10 mL aliquots of PBMCs were transferred to 50 mL conical tubes with loosened caps and compounds were added to a final concentration of 2 μM. 1 mL aliquots were then transferred to the wells of a 24-well plate per sample. The PBMC-compound mixtures were incubated for 2 hours at 37° c./5% CO2 under gentle agitation. Following incubation, PBMCs were spun at 5000 RPM for 3 min and supernatants were aspirated without disturbing the cell pellet. For samples undergoing immediate analysis, samples were resuspended in pre-cooled 1× Tris-buffered saline and were transferred to 1.5 mL conical tubes containing 0.5 mL of nyosil M25. Samples/Oil aliquots were then spun for 1 min at 13,000 RPM. Following centrifugation, all media was aspirated from the tubes without disturbing the oil layer. Water was added on top of the oil layer and the spinning/aspiration process was repeated followed by an additional water wash. […]

[2] = test system: Dengue 2, New Guinea strain (NGC); experiment: DENV-2 moDC EC50; assay type: cell-based; details: Dengue virus, Dendritic cell; human monocyte-derived dendritic cells, 48 hours, qPCR
Protocol: Human monocyte-derived dendritic cells (moDCs) were derived from CD14+ monocytes (AllCells) cultured in Human Mo-DC Differentiation medium containing GM-CSF and IL-4 (Miltenyi Biotec). On day 7, moDCs were harvested by mechanical disruption, washed and suspended in serum-free RPMI. moDCs were infected with Vero-derived Dengue 2, New Guinea strain (NGC) at a MOI=0.1 for two hours in serum-free RPMI with gentle agitation at 37° C. Cells were washed and resuspended in 10% serum-containing RPMI (Gibco, supplemented with sodium pyruvate, NEAA, Penicillin-Streptomycin). 10^5 cells were plated in triplicate in 96-well plates with compounds dispensed at graded doses (Hewlett-Packard D300 Digital Dispenser). All wells were normalized to 0.25% DMSO. At 48 hours, cells were washed with 1×PBS and all supernatants removed. Total RNA was extracted using RNEasy 96 plates (Qiagen) and used to generate first-strand cDNA using XLT cDNA 5× Supermix (QuantaBio). cDNA was used as a template in a Taqman qPCR duplex reaction specific to DENV2 viral and GAPDH gene expression. EC50 values were determined using Prism Graphpad software, with normalization to a positive control and no compound negative control wells.

## C[C@H](N[P@](=O)(OC[C@@]1(C#N)O[C@@H](c2ccc3c(N)ncnn23)[C@H](O)[C@@H]1O)Oc1ccccc1)C(=O)OC1CCCCC1 [Formula I, cyclohexyl ((S)-(((2R,3S,4R,5S)-5-(4-aminopyrrolo[2,1-f][1,2,4]triazin-7-yl)-2-cyano-3,4-dihydroxytetrahydrofuran-2-yl)methoxy)(phenoxy)phosphoryl)-L-alaninate]
HRVc25 replicon
  EC50: 7 nM
[1]
  in-vitro intracellular NTP formation in PBMCs: lower
[2]
  EC50: > 6190 nM

From patent US20250034186A1, “ANTIVIRAL COMPOUNDS” (priority 2020, published 2025)
